Measured values taken from patent US8106077B2, “Compounds and methods for modulating FXR” (Eli Lilly and Company, priority 2007, dated 2012).

Experiments:
FXR = biological target: T1, FXR (Homo sapiens, UniProt Q96RI1); experiment: bDNA assay for SHP mRNA; assay type: cell-based; conditions: human hepatocarcinoma Huh7 cells, 24 hours, bDNA signal; read-out: SHP gene activation EC50
T1 construct: Plate human hepatocarcinoma Huh7 cells grown in DMEM:F12 with 10% fetal bovine serum; endogenous in cells; host or cells: Huh7 (human hepatocarcinoma)
T1 sequence (Q96RI1 1-486): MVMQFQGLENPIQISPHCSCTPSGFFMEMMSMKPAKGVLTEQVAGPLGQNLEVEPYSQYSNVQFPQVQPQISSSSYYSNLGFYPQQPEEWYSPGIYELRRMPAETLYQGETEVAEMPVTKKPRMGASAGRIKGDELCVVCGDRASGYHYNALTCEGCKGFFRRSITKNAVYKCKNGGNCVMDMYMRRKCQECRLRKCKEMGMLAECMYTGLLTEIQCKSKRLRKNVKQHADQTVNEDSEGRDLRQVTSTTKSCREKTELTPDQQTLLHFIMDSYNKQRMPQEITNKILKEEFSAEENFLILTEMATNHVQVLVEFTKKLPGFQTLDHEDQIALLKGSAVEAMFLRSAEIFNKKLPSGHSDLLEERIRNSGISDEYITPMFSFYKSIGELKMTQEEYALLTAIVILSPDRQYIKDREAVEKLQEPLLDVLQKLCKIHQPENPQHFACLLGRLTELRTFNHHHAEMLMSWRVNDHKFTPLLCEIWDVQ
From the text: FXR is a key, direct transcriptional regulator of the Small Heterodimer Partner (SHP) gene, accession number NM_021969, an atypical member of the nuclear receptor family that lacks a DNA-binding domain. SHP interacts with several conventional and orphan members of the nuclear receptor superfamily, including retinoid receptors and thyroid hormone receptor. SHP inhibits transactivation potential of superfamily members with which it interacts. […] Since FXR directly transactivates transcription of the SHP gene, the SHP branched DNA method (bDNA) quantitates FXR activation by ligands. Thus, increased expression of SHP mRNA, as determined by increase bDNA signal, signifies engagement of FXR by an agonist.
Plate human hepatocarcinoma Huh7 cells grown in DMEM:F12 with 10% fetal bovine serum and in 96 well plate at the density of 1×10^5/well. After overnight incubation, treat the cells with test compounds at various concentrations for 24 hours. […]
Incubate the lysis buffer for 15-minute at 37° C., then transfer 100 μL of the lysate from each well to the corresponding wells of the capture plate. […] Label the mRNA to be measured by addition of 100 μL QuantiGene® label probe working buffer then incubate for 60 minutes at 46° C. […] Incubate the plates at 37° C. for up to 30 minutes and then read on a luminometer (Packard Fusion Alpha, 1 second detection) to detect the luminescent signal. […]

LDLR−/− mice = experiment: LDLR−/− serum lipid modulation; assay type: in vivo; conditions: male LDLR−/− mice on western diet, 10 mg/kg, oral gavage once daily for seven days
Method: Acclimate animals for two weeks prior to study initiation. House mice individually in polycarbonate cages with filter tops, and maintain mice on a 12:12 hour light-dark cycle (lights on at 6:00 AM) at 21° C. Provide deionized water ad libitum and maintain for two weeks on ‘western diet’ TD 88137 Diet (42% fat, 0.15% cholesterol, Harlan Teklad) ad libitum. Optimize groups of five ten-week-old male LDLR−/− mice based on serum triglyceride and cholesterol levels. Dose groups once daily by oral gavage with various doses of the test compound dissolved in 5% EtOH/5% Solutol in NaCMC (1%), SLS (0.5%), antifoam (0.05%), Povidone (0.085%) for seven days. At the end of the seven-day dosing period, collect blood by cardiac puncture after asphyxiation in a CO2 chamber. […] Lipoproteins were separated by fast protein liquid chromatography, and cholesterol was quantitated with an in-line detection system. […] The colored product produced in the presence of cholesterol was monitored in the flow stream at 505 nm, and the analog voltage from the monitor was converted to a digital signal for collection and analysis. The change in voltage corresponding to change in cholesterol concentration was plotted vs. time, and the area under the curve corresponding to the elution of VLDL-C and HDL-C was calculated using Turbochrome (version 4.12F12) software from PerkinElmer (Norwalk, Conn.). […]

Row | EC50 (FXR) | SMILES | lowering of total cholesterol (LDLR−/− mice) | lowering of triglycerides (LDLR−/− mice)
1 | ~370 nM | Cc1cc(OCc2c(C(C)C)nnn2-c2c(Cl)cccc2Cl)ccc1N(C)Cc1ccc(C(=O)O)cc1 [Example 42, 4-[({4-[5-Isopropyl-3-(2,6-Dichloro-phenyl)-3H-[1,2,3]triazol-4-ylmethoxy]-2-methyl-phenyl}-methyl-amino)-methyl]-benzoic acid] |  | 
2 |  | Cc1cc(CN(C)c2ccc(OCc3c(C(C)C)nnn3-c3c(Cl)cccc3Cl)cc2C)ccc1C(=O)O [Example 13, 4-[({4-[5-Isopropyl-3-(2,6-dichloro-phenyl)-3H-[1,2,3]triazol-4-ylmethoxy]-2-methyl-phenyl}-methyl-amino)-methyl]-2-methyl-benzoic acid] | 60% | 63%
